From BindingDB's records for PubMed 11602678 (Otsuka Maryland Research Institute, 2001)

Experiments:
[1] = target: T1, Alpha-2A adrenergic receptor [16-465] (Rattus norvegicus, UniProt P22909)
T1 construct: 16-465
T1 sequence (P22909 whole entry): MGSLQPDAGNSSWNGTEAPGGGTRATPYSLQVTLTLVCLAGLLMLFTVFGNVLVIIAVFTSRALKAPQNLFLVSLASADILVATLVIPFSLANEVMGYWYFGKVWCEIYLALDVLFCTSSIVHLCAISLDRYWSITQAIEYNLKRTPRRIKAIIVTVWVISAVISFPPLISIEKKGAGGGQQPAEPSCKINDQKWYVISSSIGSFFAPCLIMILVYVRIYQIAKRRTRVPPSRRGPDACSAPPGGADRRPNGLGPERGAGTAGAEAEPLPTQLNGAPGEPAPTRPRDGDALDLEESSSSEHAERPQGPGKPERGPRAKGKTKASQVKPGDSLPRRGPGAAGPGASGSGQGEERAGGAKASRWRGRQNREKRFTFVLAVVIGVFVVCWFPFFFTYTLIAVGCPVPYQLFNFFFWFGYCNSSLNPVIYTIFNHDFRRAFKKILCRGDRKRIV

[2] = target: T2, Alpha-2C adrenergic receptor (Rattus norvegicus, UniProt P22086)
T2 sequence (P22086 whole entry): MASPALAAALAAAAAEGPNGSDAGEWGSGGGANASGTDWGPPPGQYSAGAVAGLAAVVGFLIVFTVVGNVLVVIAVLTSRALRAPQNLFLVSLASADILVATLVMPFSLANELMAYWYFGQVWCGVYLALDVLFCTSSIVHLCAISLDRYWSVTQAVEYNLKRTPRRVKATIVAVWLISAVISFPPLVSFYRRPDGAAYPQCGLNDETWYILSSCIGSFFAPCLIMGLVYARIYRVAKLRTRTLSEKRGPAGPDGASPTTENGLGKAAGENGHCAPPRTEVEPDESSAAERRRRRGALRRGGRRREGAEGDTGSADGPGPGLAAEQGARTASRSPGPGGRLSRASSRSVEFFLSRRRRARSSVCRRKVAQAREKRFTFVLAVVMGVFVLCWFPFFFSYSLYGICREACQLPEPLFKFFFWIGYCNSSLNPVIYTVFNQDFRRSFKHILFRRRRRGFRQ

## CCC(=O)Nc1c(C)cc(C(=O)N2CCC(N(C)CCc3ccccc3)CC2)cc1C [NSC_219019]
[1]
  Ki: 3.84 µM
[2]
  Ki: 13.7 nM
